Experimental data published in patent US9498483B2, “2,3,5-trisubstituted thiophene compounds and uses thereof” (priority 2010, dated 2016).

What was measured:
[1] = tested on: HCV replicon I389luc-ubi-neo/NS3-3′/ET in ET (Huh-lucubineo-ET) cells; experiment: Replicon assay (Biological Example 2), luciferase readout; type: cell-based; settings: Hepatitis C virus
In short: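 EC50 values come from Hill fits of % inhibition of replicon-driven firefly luciferase, relative to no-compound wells. Compounds were serially diluted (10 points, 3-fold, 0.1 nM–50 μM final, 0.5% DMSO) onto ET replicon cells and read after 48 h.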

HCV polymerase = biological target: T1, HCV polymerase (Hepatitis C virus genotype 1b, UniProt Q9WMX2); experiment: Polymerase assay of Biological Example 1 (IC50 values of Table 3); type: biochemical; settings: IC50 values of Table 3, polymerase assay of Biological Example 1; read-out: NS5B-enzyme3
T1 construct: (His)6 (C); made in house; host or cells: XL-1 cells (E. coli, by own knowledge)

[2] = ET cells, luciferase activity 48 hours after compound

Structure (SMILES) | IC50 [1, 2] | IC50 (HCV polymerase) | IC50 ([1]; between 100 nM and 5.0 uM)
O=C(O)c1sc(-c2ccccc2)cc1N1C(=O)CN(S(=O)(=O)c2ccc(NC3CCCC3)nc2)CC1C1CCCCC1 (stereo not shown) [Compound 82, 3-[2-Cyclohexyl-4-(6-cyclopentylamino-pyridine-3-sulfonyl)-6-oxo-piperazin-1-yl]-5-phenyl-thiophene-2-carboxylic acid] | ≤ 100 nM | 6 nM | 
CC(C)(C)C#Cc1cc(N2C(=O)CN(S(=O)(=O)c3ccc(C(F)(F)F)cc3)C[C@H]2C2CCCCC2)c(C(=O)O)s1 [Compound 250, 3-[(R)-2-Cyclohexyl-6-oxo-4-(4-trifluoromethyl-benzenesulfonyl)-piperazin-1-yl]-5-(3,3-dimethyl-but-1-ynyl)-thiophene-2-carboxylic acid] | ≤ 100 nM | 5.5 nM | 
O=C(O)c1sc(-c2ccccc2)cc1N1C(=O)CN(S(=O)(=O)c2cccc(OC(F)(F)F)c2)CC1C1CCCCC1 (stereo not shown) [Compound 59] |  | 39 nM | 100 to 5000 nM
COC[C@@H]1CCCN1c1ccc(S(=O)(=O)N2CC(=O)N(c3cc(-c4ccc(F)cc4)sc3C(=O)O)[C@H](C3CCCCC3)C2)cn1 [Compound 279, 3-{(R)-2-Cyclohexyl-4-[6-((S)-2-methoxymethyl-pyrrolidin-1-yl)-pyridine-3-sulfonyl]-6-oxo-piperazin-1-yl}-5-(4-fluoro-phenyl)-thiophene-2-carboxylic acid] | ≤ 100 nM | 1.1 nM | 
Cc1ccc(-c2cc(N3C(=O)CN(S(=O)(=O)c4cnn(CC(C)C)c4)C[C@H]3C3CCCCC3)c(C(=O)O)s2)cc1 [Compound 301, 3-[(R)-2-Cyclohexyl-4-(1-isobutyl-1H-pyrazole-4-sulfonyl)-6-oxo-piperazin-1-yl]-5-p-tolyl-thiophene-2-carboxylic acid] | ≤ 100 nM | 4 nM | 
Cc1ncc(S(=O)(=O)N2CC(=O)N(c3cc(C#CC(C)(C)C)sc3C(=O)O)[C@H](C3CCCCC3)C2)n1C [Compound 255, 3-[(R)-2-Cyclohexyl-4-(2,3-dimethyl-3H-imidazole-4-sulfonyl)-6-oxo-piperazin-1-yl]-5-(3,3-dimethyl-but-1-ynyl)-thiophene-2-carboxylic acid] |  | 5 nM | 100 to 5000 nM
O=C(O)c1sc(-c2ccccc2)cc1N1C(=O)CN(Cc2ccc(N3CCCC3=O)cc2)C[C@H]1C1CCCCC1 [Compound 262, 3-{(R)-2-Cyclohexyl-6-oxo-4-[4-(2-oxo-pyrrolidin-1-yl)-benzyl]-piperazin-1-yl}-5-phenyl-thiophene-2-carboxylic acid] |  | 25 nM | 100 to 5000 nM
CC1(C)OC[C@@H](C2CCCCC2)N(c2cc(-c3ccc(Cl)cc3)sc2C(=O)O)C1=O [Compound 315, 5-(4-Chloro-phenyl)-3-((R)-5-cyclohexyl-2,2-dimethyl-3-oxo-morpholin-4-yl)-thiophene-2-carboxylic acid] | ≤ 100 nM | 6 nM | 
C[C@@H]1CCC[C@H](C)N1c1ccc(S(=O)(=O)N2CC(=O)N(c3cc(-c4ccccc4)sc3C(=O)O)C(C3CCCCC3)C2)cn1 (stereo partly drawn) [Compound 126, 3-[2-Cyclohexyl-4-((2S,6R)-2,6-dimethyl-3,4,5,6-tetrahydro-2H-[1,2′]bipyridinyl-5′-sulfonyl)-6-oxo-piperazin-1-yl]-5-phenyl-thiophene-2-carboxylic acid] | ≤ 100 nM | 11 nM | 
COCCNc1ccc(S(=O)(=O)N2CC(=O)N(c3cc(-c4ccccc4)sc3C(=O)O)C(C3CCCCC3)C2)cn1 (stereo not shown) [Compound 78, 3-{2-Cyclohexyl-4-[6-(2-methoxy-ethylamino)-pyridine-3-sulfonyl]-6-oxo-piperazin-1-yl}-5-phenyl-thiophene-2-carboxylic acid] | ≤ 100 nM | 5 nM | 
COc1ccc(S(=O)(=O)N2CC(=O)N(c3cc(C#CC(C)(C)C)sc3C(=O)O)[C@H](C3CCCCC3)C2)cc1 [Compound 190, 3-[(R)-2-Cyclohexyl-4-(4-methoxy-benzenesulfonyl)-6-oxo-piperazin-1-yl]-5-(3,3-dimethyl-but-1-ynyl)-thiophene-2-carboxylic acid] | ≤ 100 nM | 1 nM | 
